{"source": "patent US20110144125A1", "about": "“Anti-Arrhythmia Agents, Methods of Their Use, Methods of Their Identification and Kits Therefore” (THE UAB RESEARCH FOUNDATION, priority 2008, published 2011)", "key": {"[1]": {"test_system": "rat left atrial appendage", "experiment": "2-APB-induced spontaneous mechanical activity (SMA/SMEs) in isolated superfused rat left atria / left atrial appendage"}, "[2]": {"test_system": "right ventricular muscle strips and right or left ventricular papillary muscles", "experiment": "Ventricular muscle model of SMA and STA", "design": "species or system rat", "details": "paced at 0.5 Hz, added to the superfusate in appropriate amounts", "text": "To further establish this model as a general test for arrhythmic and anti-arrhythmic agents, right ventricular muscle strips and right or left ventricular papillary muscles were isolated from anesthetized rats as cardiac muscle exemplars using methods known to persons skilled in the art. Additional exemplars could include ventricular or atrial conduction system cells and the SAN itself. These muscles were then superfused as described above and paced at 0.5 Hz."}, "[3]": {"test_system": "rat left atrial appendage", "experiment": "ATXII-induced triggered activity and transition to automaticity in left atrial appendage", "details": "ATXII-treated appendages, ˜25 μM 2-APB", "text": "There are two types of afterdepolarizations; early afterdepolarizations (EADs) that occur early during repolarization and delayed afterdepolarizations (DADs) that occur in fully repolarized, resting myocytes (FIG. 4). Both EADs and DADs are defined as “triggered” activities as they require a preceding normal action potential to occur (FIG. 3B). One model to elicit EADs is to expose heart muscle or myocytes to Anemonia sulcata Toxin II (ATX II). This 47 amino acid peptide specifically enhances late sodium current and prolongs the action potential duration (FIG. 3D; middle panel). This leads to calcium loading of heart muscle followed by EADs during phase 2 or phase 3 of the action potential (FIGS. 3D & 5). These EADs, if of sufficient magnitude, produce ectopic mechanical events (FIG. 3B; ‡).\nIn embodiments of the assay an agent to induce arrhythmia will be introduced in the muscle. The arrhythmic agent may be chemical or physical. If the agent is chemical, it can be any chemical agent known by those skilled in the art to induce arrhythmia. The chemical agent will be introduced at a concentration sufficient to induce arrhythmia. If a certain type of arrhythmia is the subject of the assay (for example, triggered activity, tachycardia or any other type of arrhythmia), then the agent should be present at a concentration sufficient to produce the certain type of arrhythmia. One acceptable agent is anemone toxin II (“ATX II,”), the toxin of Anemone sulcata. ATX II is a sodium channel regulator.\nIt was tested whether the altered voltage-independent calcium homeostasis which 2-APB provokes is sufficient to initiate frank automaticity from triggered activity."}, "[4]": {"test_system": "isolated atrial and ventricular muscle", "details": ">20 μM 2-APB with an agent that increases myocyte calcium load", "description": "Specifically, isolated, superfused heart muscle, atrial or ventricular, treated with an appropriate concentration of 2-APB (>20 μM) and with an agent that increases myocyte calcium load was exposed to external pacing that stimulates the muscle at a physiological rate and with strength just sufficient to capture it."}, "[5]": {"details": "no 2-APB, 30 nM isoproterenol, 3 μM forskolin, 300 nM BayK 8644 or FPL-64176, 120 μM ouabain, 600 nM ryanodine"}}, "note": "“And” between values parts separate entries of the source, which are not always exact repeats. Identical values can stand only once. Like-named read-outs stand apart in the source and are kept apart here.", "data": [{"molecule": "NCCOB(c1ccccc1)c1ccccc1", "note": "[2-APB, 2-aminoethoxydiphenyl borate]", "values": [{"measurement": "2-APB concentration giving intermittent increases in left atrial mechanical force independent of pacing (SMEs)", "setting": "[1]", "result": "> 7.5", "unit": "µM"}, {"measurement": "2-APB concentration producing sporadic mechanical events in the absence of pacing stimulus", "setting": "[1]", "result": "> 10", "unit": "M"}, {"measurement": "SMEs during rest", "setting": "[1]", "result": "numerous SMEs during rest"}, {"measurement": "SMEs giving way to SMA", "setting": "[1]", "result": "Repeated SMEs"}, {"measurement": "SMEs in slowly paced preparations", "setting": "[1]", "result": "only few SMEs"}, {"measurement": "rate of SMA", "setting": "[1]", "result": "47±6 contractions/min and ~50 contractions/min"}, {"measurement": "ventricular SMA", "setting": "[2]", "result": "ventricular SMA was observed"}, {"measurement": "transition from triggered activity to STA", "setting": "[3]", "result": "STA began to occur"}, {"measurement": "mechanical activity under physiological-rate pacing", "setting": "[4]", "result": "disorganized, fibrillation-like mechanical activity"}]}, {"molecule": "COC(=O)C1=C(C)NC(C)=C([N+](=O)[O-])[C@H]1c1ccccc1C(F)(F)F", "note": "[BayK 8644, (45)-1,4-Dihydro-2,6-dimethyl-5-nitro-4-[2-(trifluormethyl)phenyl]-3-pyridinecarboxylic acid methyl ester]", "values": [{"measurement": "ectopic activity (SMEs/SMA/STA) with agent alone", "setting": "[1]", "result": "SMA or SMEs do not occur"}]}, {"molecule": "COC(=O)c1c(C)[nH]c(C)c1C(=O)c1ccccc1Cc1ccccc1", "note": "[FPL-64176, 2,5-Dimethyl-4-[2-(phenylmethyl)benzoyl]-111-pyrrole-3-carboxylic acid methyl ester]", "values": [{"measurement": "ectopic activity (SMEs/SMA/STA) with agent alone", "setting": "[1]", "result": "SMA or SMEs do not occur"}]}, {"molecule": "CC(C)NCC(O)c1ccc(O)c(O)c1", "note": "(centres unmarked) [isoproterenol]", "values": [{"measurement": "ectopic activity (SMEs/SMA/STA) with agent alone", "setting": "[1]; [5]", "result": "quiescent in the absence of pacing"}]}, {"molecule": "C[C@@H]1O[C@@H](O[C@H]2C[C@@H](O)[C@]3(CO)[C@H]4[C@H](O)C[C@]5(C)[C@@H](C6=CC(=O)OC6)CC[C@]5(O)[C@@H]4CC[C@]3(O)C2)[C@H](O)[C@H](O)[C@H]1O", "note": "[ouabain]", "values": [{"measurement": "ectopic activity (SMEs/SMA/STA) with agent alone", "setting": "[1]; [5]", "result": "does not affect their mechanical stability"}]}, {"molecule": "ryanodine", "values": [{"measurement": "ectopic activity (SMEs/SMA/STA) with agent alone", "setting": "[1]", "result": "SMEs, SMA or STA does not occur"}]}]}
